Assay results as given in ChEMBL document CHEMBL1137896, “Synthesis and AMPA receptor antagonistic activity of a novel 7-imidazolyl-6-trifluoromethyl quinoxalinecarboxylic acid with a substituted phenyl group and improved its good physicochemical properties by introduced CF3 group” (Bioorg Med Chem Lett, 2004).
pKi: −log10 of the molar value. ≈ marks a conversion by molar mass, not a printed value.

Experiments:
Rattus norvegicus [1] = experiment: In vivo protective effect in focal ischemia rat model was determined after intravenous dosage at 2.5 mg/kg/h for 4 hr; type: functional
[2] = Solubility at pH 7.4; type: physicochemical; details: buffer
[3] = molecular target: Glutamate receptor ionotropic, AMPA (Rattus norvegicus, UniProt P19490+P19491+P19492+P19493); experiment: Displacement of [3H]AMPA (5 nM) from ionotropic glutamate receptor AMPA of rat cerebral cortex synaptic membrane preparation; type: tissue-based
Rattus norvegicus [4] = experiment: In vivo protective effect in focal ischemia rat model was determined after intravenous dosage at 15 mg/kg/h for 4 hr; type: functional
Rattus norvegicus [5] = experiment: In vivo protective effect in focal ischemia rat model was determined after intravenous dosage at 30 mg/kg/h for 4 hr; type: functional

## O=C(Nc1ccc(C(=O)O)cc1)OCc1cn(-c2cc3nc(C(=O)O)c(O)nc3cc2[N+](=O)[O-])cn1
Rattus norvegicus [1]
  Protection: 3
[2]
  solubility: 4860 µg/mL (≈ 9.83 mM)

## O=C(O)c1nc2cc(-n3ccnc3)c(C(F)(F)F)cc2nc1O
[3]
  pKi: 7.07

## O=C(Nc1ccc(C(F)(F)F)cc1)OCc1cn(-c2cc3nc(C(=O)O)c(O)nc3cc2C(F)(F)F)cn1
[3]
  pKi: 7.54

## O=C(Nc1cc(Cl)cc(Cl)c1)OCc1cn(-c2cc3nc(C(=O)O)c(O)nc3cc2C(F)(F)F)cn1
[3]
  pKi: 7.89

## Cc1ccc(NC(=O)OCc2cn(-c3cc4nc(C(=O)O)c(O)nc4cc3C(F)(F)F)cn2)cc1
[3]
  pKi: 7.70

## O=C(Nc1ccc(Br)cc1)OCc1cn(-c2cc3nc(C(=O)O)c(O)nc3cc2C(F)(F)F)cn1
[3]
  pKi: 7.70

## COc1ccc(NC(=O)OCc2cn(-c3cc4nc(C(=O)O)c(O)nc4cc3C(F)(F)F)cn2)cc1
[3]
  pKi: 7.52

## O=C(Nc1ccc(C(=O)O)cc1)OCc1cn(-c2cc3nc(C(=O)O)c(O)nc3cc2C(F)(F)F)cn1
Rattus norvegicus [1]
  Protection: 2.7
[3]
  pKi: 7.80
[2]
  solubility: 8290 µg/mL (≈ 16 mM)

## O=C(Nc1cccc(Br)c1)OCc1cn(-c2cc3nc(C(=O)O)c(O)nc3cc2C(F)(F)F)cn1
[3]
  pKi: 8.28

## O=C(Nc1ccccc1)OCc1cn(-c2cc3nc(C(=O)O)c(O)nc3cc2C(F)(F)F)cn1
[3]
  pKi: 7.64

## O=C(NCc1ccccc1)OCc1cn(-c2cc3nc(C(=O)O)c(O)nc3cc2C(F)(F)F)cn1
[3]
  pKi: 6.72

## O=C(Nc1cccc(C(=O)O)c1)OCc1cn(-c2cc3nc(C(=O)O)c(=O)[nH]c3cc2C(F)(F)F)cn1
[3]
  pKi: 7.46

## O=c1[nH]c2cc(-n3ccnc3)c([N+](=O)[O-])cc2[nH]c1=O [YM-90K]
Rattus norvegicus [4]
  Protection: 2.8
[2]
  solubility: 1000 µg/mL (≈ 3.66 mM)

## O=C(O)Cn1c(=O)c(=O)[nH]c2cc([N+](=O)[O-])c(-n3ccnc3)cc21 [ZONAMPANEL]
[2]
  solubility: > 5000 µg/mL
Rattus norvegicus [5]
  Protection: 0.5
